Laboratory results published in PubChem BioAssay AID256 (DTP/NCI, 2004).
Several values for one entry are separate records, joined by “and”; a condition that tells them apart may be missing. Identical values can stand only once. Toxic doses and inconclusive results are not listed.

Test system: CD2F1 mice, L1210 leukemia ip, survival T/C
Test: NCI In Vivo Anticancer Drug Screen. Data for tumor model L1210 Leukemia (intraperitoneal) in CD2F1 (CDF1) mice
Conditions: higher = longer survival
How it was run: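 Implant tumor; dose compound or vehicle; measure endpoint in both groups; report treated divided by control.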

[1] = endpoint: mean survival time, dose: 100.0 mg/kg/injection, schedule: Q01DX001 (ip), vehicle: saline
[2] = endpoint: mean survival time, dose: 200.0 mg/kg/injection, schedule: Q01DX001 (ip), vehicle: saline
[3] = endpoint: mean survival time, dose: 400.0 mg/kg/injection, schedule: Q01DX001 (ip), vehicle: saline
[4] = endpoint: mean survival time, dose: 100.0 mg/kg/injection, schedule: Q01DX009 (ip), vehicle: saline with Tween-80
[5] = endpoint: mean survival time, dose: 200.0 mg/kg/injection, schedule: Q01DX009 (ip), vehicle: saline with Tween-80
[6] = endpoint: mean survival time, dose: 100.0 mg/kg/injection, schedule: Q04DX003 (ip), vehicle: saline with Tween-80
[7] = endpoint: mean survival time, dose: 200.0 mg/kg/injection, schedule: Q04DX003 (ip), vehicle: saline with Tween-80
[8] = endpoint: mean survival time, dose: 400.0 mg/kg/injection, schedule: Q04DX003 (ip), vehicle: saline with Tween-80
[9] = endpoint: mean survival time, dose: 100.0 mg/kg/injection, schedule: Q01DX001 (ip), vehicle: saline with Tween-80
[10] = endpoint: mean survival time, dose: 200.0 mg/kg/injection, schedule: Q01DX001 (ip), vehicle: saline with Tween-80
[11] = endpoint: mean survival time, dose: 12.5 mg/kg/injection, schedule: Q01DX009 (ip), vehicle: saline with Tween-80
[12] = endpoint: mean survival time, dose: 25.0 mg/kg/injection, schedule: Q01DX009 (ip), vehicle: saline with Tween-80
[13] = endpoint: mean survival time, dose: 50.0 mg/kg/injection, schedule: Q01DX009 (ip), vehicle: saline with Tween-80

N#C[S-].N#C[S-].[NH-]CC[NH-].[Pt+4]
T/C (endpoint: mean survival time, dose: 10.0 mg/kg/injection, schedule: Q04DX003 (ip), vehicle: saline with Tween-80): 97 % of control | T/C (endpoint: mean survival time, dose: 20.0 mg/kg/injection, schedule: Q04DX003 (ip), vehicle: saline with Tween-80): 98 % of control | T/C (endpoint: mean survival time, dose: 40.0 mg/kg/injection, schedule: Q04DX003 (ip), vehicle: saline with Tween-80): 106 % of control

O=S(=O)(O)c1ccc(O)cc1
T/C [1]: 103 % of control | T/C [2]: 108 % of control | T/C [3]: 100 % of control

Cc1cccc(/C=N\OCc2ccccc2)n1
T/C [4]: 98 % of control | T/C [5]: 113 % of control

Clc1ccc(NC2=NCCO2)cc1
T/C (endpoint: mean survival time, dose: 100.0 mg/kg/injection, schedule: Q04DX003 (ip), vehicle: Klucel (hydroxypropylcellulose) (HPC)): 94 % of control

CCOc1ccc(C(/C(Cl)=N/O)C(Cl)(Cl)Cl)cc1 (stereo not drawn)
T/C (endpoint: mean survival time, dose: 12.5 mg/kg/injection, schedule: Q01DX009 (ip), vehicle: acetone): 94 % of control | T/C (endpoint: mean survival time, dose: 25.0 mg/kg/injection, schedule: Q01DX009 (ip), vehicle: acetone): 103 % of control | T/C (endpoint: mean survival time, dose: 50.0 mg/kg/injection, schedule: Q01DX009 (ip), vehicle: acetone): 108 % of control

CC1(C)OC2C(CN=[N+]=[N-])OC(n3cnc4c(=O)[nH]c(N)nc43)C2O1 (stereo not drawn)
T/C (endpoint: mean survival time, dose: 100.0 mg/kg/injection, schedule: Q01DX001 (ip), vehicle: Klucel (hydroxypropylcellulose) (HPC)): 109 % of control | T/C (endpoint: mean survival time, dose: 200.0 mg/kg/injection, schedule: Q01DX001 (ip), vehicle: Klucel (hydroxypropylcellulose) (HPC)): 97 % of control | T/C (endpoint: mean survival time, dose: 400.0 mg/kg/injection, schedule: Q01DX001 (ip), vehicle: Klucel (hydroxypropylcellulose) (HPC)): 97 % of control

CC(C)CCC(=O)c1ccoc1
T/C (endpoint: median survival time, dose: 0.12 mg/kg/injection, schedule: Q03HX015 (ip), vehicle: saline with Tween-80): 100 % of control | T/C (endpoint: median survival time, dose: 0.25 mg/kg/injection, schedule: Q03HX015 (ip), vehicle: saline with Tween-80): 103 % of control | T/C (endpoint: median survival time, dose: 0.5 mg/kg/injection, schedule: Q03HX015 (ip), vehicle: saline with Tween-80): 101 % of control | T/C (endpoint: median survival time, dose: 1.0 mg/kg/injection, schedule: Q03HX015 (ip), vehicle: saline with Tween-80): 100 % of control | T/C (endpoint: median survival time, dose: 2.0 mg/kg/injection, schedule: Q03HX015 (ip), vehicle: saline with Tween-80): 96 % of control

N#CC12OC1(C#N)C(=O)C=CC2=O (stereo not drawn)
T/C (endpoint: mean survival time, dose: 6.25 mg/kg/injection, schedule: Q01DX001 (ip), vehicle: saline): 104 % of control | T/C (endpoint: mean survival time, dose: 12.5 mg/kg/injection, schedule: Q01DX001 (ip), vehicle: saline): 89 % of control | T/C (endpoint: mean survival time, dose: 25.0 mg/kg/injection, schedule: Q01DX001 (ip), vehicle: saline): 93 % of control

CC(Br)C(=O)NC(C)C(=O)O (stereo not drawn)
T/C [6]: 92 % of control | T/C [7]: 108 % of control | T/C [8]: 121 % of control

O=C[c-]1[c-][c-][c-][c-]1.[Fe+2].[c-]1[c-][c-][cH-][c-]1
T/C [9]: 117 % of control | T/C [10]: 100 % of control

O=C1CCC(=O)N1O
T/C [1]: 104 % of control | T/C (endpoint: mean survival time, dose: 100.0 mg/kg/injection, schedule: Q04DX003 (ip), vehicle: saline): 100 % of control | T/C [2]: 103 % of control | T/C (endpoint: mean survival time, dose: 200.0 mg/kg/injection, schedule: Q04DX003 (ip), vehicle: saline): 102 % of control | T/C [3]: 103 % of control | T/C (endpoint: mean survival time, dose: 400.0 mg/kg/injection, schedule: Q04DX003 (ip), vehicle: saline): 98 % of control

N=C(N)SCc1ccccc1Cl
T/C (endpoint: mean survival time, dose: 1.56 mg/kg/injection, schedule: Q01DX009 (ip), vehicle: saline): 101 % of control | T/C (endpoint: mean survival time, dose: 3.13 mg/kg/injection, schedule: Q01DX009 (ip), vehicle: saline): 101 % of control | T/C (endpoint: mean survival time, dose: 6.25 mg/kg/injection, schedule: Q01DX009 (ip), vehicle: saline): 101 % of control

COC(=O)C1C2C(=O)NC(=O)C2C(c2ccc(-c3ccccc3)cc2)N1C1CCCCC1 (stereo not drawn)
T/C [6]: 105 % of control | T/C [7]: 100 % of control | T/C [8]: 103 % of control

O=C(O)C(CO)C(CO)C(=O)O (stereo not drawn)
T/C (endpoint: mean survival time, dose: 50.0 mg/kg/injection, schedule: Q01DX001 (ip), vehicle: saline): 107 % of control | T/C [1]: 121 % of control | T/C [2]: 101 % of control | T/C [3]: 106 % of control

CC1C=C(Br)C(=O)C(n2cnc3c(=O)n(C)c(=O)n(C)c32)O1 (stereo not drawn)
T/C (endpoint: mean survival time, dose: 12.5 mg/kg/injection, schedule: Q01DX005 (ip), vehicle: distilled water + Tween-80): 100 % of control | T/C (endpoint: mean survival time, dose: 25.0 mg/kg/injection, schedule: Q01DX005 (ip), vehicle: distilled water + Tween-80): 97 % of control

O=C(O)C1Cc2c([nH]c3ccccc23)C2CCC(=O)N12 (stereo not drawn)
T/C (endpoint: mean survival time, dose: 100.0 mg/kg/injection, schedule: Q04DX002 (ip), vehicle: saline with Tween-80): 100 % of control | T/C (endpoint: mean survival time, dose: 200.0 mg/kg/injection, schedule: Q04DX002 (ip), vehicle: saline with Tween-80): 108 % of control | T/C (endpoint: mean survival time, dose: 400.0 mg/kg/injection, schedule: Q04DX002 (ip), vehicle: saline with Tween-80): 100 % of control

Brc1ccc(C[N+]23CN4CN(CN(C4)C2)C3)cc1
T/C [11]: 102 % of control | T/C [12]: 102 % of control | T/C [13]: 97 % of control | T/C [4]: 96 % of control | T/C [5]: 94 % of control

CCC1(OC(=O)CNC)C(=O)OCc2c1cc1n(c2=O)Cc2cc3ccccc3nc2-1 (stereo not drawn)
T/C (endpoint: median survival time, dose: 7.5 mg/kg/injection, schedule: Q04DX002 (ip), vehicle: saline): 124 % of control | T/C (endpoint: median survival time, dose: 15.0 mg/kg/injection, schedule: Q04DX002 (ip), vehicle: saline): 160 % of control and 162 % of control | T/C (endpoint: median survival time, dose: 30.0 mg/kg/injection, schedule: Q04DX002 (ip), vehicle: saline): 239 % of control | T/C (endpoint: median survival time, dose: 60.0 mg/kg/injection, schedule: Q04DX002 (ip), vehicle: saline): 108 % of control

Cc1ccnc([N+](=O)[O-])c1
T/C [6]: 102 % of control | T/C [7]: 96 % of control | T/C [8]: 97 % of control

CC(=O)c1ccco1
T/C [11]: 96 % of control | T/C [12]: 95 % of control | T/C (endpoint: mean survival time, dose: 25.0 mg/kg/injection, schedule: Q04DX003 (ip), vehicle: saline with Tween-80): 104 % of control | T/C [13]: 98 % of control | T/C (endpoint: mean survival time, dose: 50.0 mg/kg/injection, schedule: Q04DX003 (ip), vehicle: saline with Tween-80): 122 % of control

Cc1c2ccccc2cc2c1ccc1ccccc12
T/C (endpoint: mean survival time, dose: 9.0 mg/kg/injection, schedule: Q01DX009 (ip), vehicle: saline with Tween-80): 106 % of control | T/C (endpoint: mean survival time, dose: 17.5 mg/kg/injection, schedule: Q01DX009 (ip), vehicle: saline with Tween-80): 108 % of control | T/C (endpoint: mean survival time, dose: 35.0 mg/kg/injection, schedule: Q01DX009 (ip), vehicle: saline with Tween-80): 108 % of control | T/C (endpoint: mean survival time, dose: 70.0 mg/kg/injection, schedule: Q01DX009 (ip), vehicle: saline with Tween-80): 103 % of control

CCCCCCCCCCCCN1C(C)=CS/C1=C\C=C\c1scc(C)[n+]1CCCCCCCCCCCC
T/C (endpoint: mean survival time, dose: 0.78 mg/kg/injection, schedule: Q01DX009 (ip), vehicle: saline with Tween-80): 123 % of control

O=C(CC(=O)CC(O)(C(F)(F)F)C(F)(F)F)CC(O)(C(F)(F)F)C(F)(F)F
T/C (endpoint: mean survival time, dose: 5.0 mg/kg/injection, schedule: Q04DX003 (ip), vehicle: saline): 100 % of control | T/C (endpoint: mean survival time, dose: 10.0 mg/kg/injection, schedule: Q04DX003 (ip), vehicle: saline): 96 % of control

Cc1cc(S(N)(=O)=O)c(N)c(S(N)(=O)=O)c1
T/C [6]: 96 % of control | T/C [7]: 93 % of control | T/C [8]: 102 % of control

COc1ccc(NC(=O)NCc2cccc(Cl)c2)cc1
T/C (endpoint: mean survival time, dose: 50.0 mg/kg/injection, schedule: Q01DX009 (ip), vehicle: Klucel (hydroxypropylcellulose) (HPC)): 102 % of control | T/C (endpoint: mean survival time, dose: 100.0 mg/kg/injection, schedule: Q01DX009 (ip), vehicle: Klucel (hydroxypropylcellulose) (HPC)): 114 % of control | T/C (endpoint: mean survival time, dose: 200.0 mg/kg/injection, schedule: Q01DX009 (ip), vehicle: Klucel (hydroxypropylcellulose) (HPC)): 117 % of control

[Cl][Pt+2][Cl].c1ccc(CC2CC[N-]CC2)cc1.c1ccc(CC2CC[N-]CC2)cc1
T/C (endpoint: mean survival time, dose: 50.0 mg/kg/injection, schedule: Q01DX001 (ip), vehicle: saline with Tween-80): 96 % of control | T/C [9]: 96 % of control | T/C [10]: 90 % of control

CCCC(CC)C(=O)CC1CCCCC1 (stereo not drawn)
T/C [6]: 105 % of control | T/C [7]: 94 % of control | T/C [8]: 98 % of control

COC(=O)NC1=C(N2CC2)C(=O)C(NC(=O)OC)=C(N2CC2)C1=O
T/C (endpoint: mean survival time, dose: 0.75 mg/kg/injection, schedule: Q01DX009 (ip), vehicle: saline): 154 % of control | T/C (endpoint: mean survival time, dose: 1.5 mg/kg/injection, schedule: Q01DX009 (ip), vehicle: saline): 175 % of control

C=C1CC23CC1(O)CCC2C12C=CCC(C)(C(=O)O1)C2C3C(=O)O (stereo not drawn)
T/C [4]: 91 % of control | T/C [5]: 95 % of control | T/C (endpoint: mean survival time, dose: 400.0 mg/kg/injection, schedule: Q01DX009 (ip), vehicle: saline with Tween-80): 91 % of control

O=C(Nc1ccc2c3c(ccc(C(=O)O)c13)CC2)c1ccccc1
T/C [6]: 97 % of control | T/C [7]: 95 % of control | T/C [8]: 104 % of control
